Laboratory results reported in patent publication US10149879B2 (priority 2014, dated 2018).

Key:
[1] = test system: 3T3-L1 cells; assay: Anti-oxidant activity in 3T3-L1 cells challenged with H2O2; assay type: cell-based; design: Anti-oxidant activity, cells challenged with H2O2: scale not given here; settings: for Anti-oxidant activity, cells challenged with H2O2: 3T3-L1; for protection against H2O2 induced cellular oxidative damage: 3T3-L1 cells
Description: Anti-Oxidant Activity in 3T3-L1 Cells Challenged with H2O2 Berberin and Palmatine
Anti-Oxidant Activity in 3T3-L1 Cells Challenged with H2O2 Berberin and Quercetin

[2] = test system: L6 cells; assay: Anti-oxidant activity in L6 cells challenged with H2O2; assay type: cell-based; design: Anti-oxidant activity, cells challenged with H2O2: unit not given here; settings: for Anti-oxidant activity, cells challenged with H2O2: L6; for protection against H2O2 induced cellular oxidative damage: L6 cells
Description: Anti-Oxidant Activity in L6 Cells Challenged with H2O2 Berberin and Palmatine
Anti-Oxidant Activity in L6 Cells Challenged with H2O2—Berberin and Quercetin

[3] = test system: βTC6 insulinoma cell; assay: Anti-oxidant activity in βTC6 insulinoma cell challenged with H2O2; assay type: cell-based; design: Anti-oxidant activity, cells challenged with H2O2: unit not given here; settings: for Anti-oxidant activity, cells challenged with H2O2: βTC6
Description: Anti-Oxidant Activity in βTC6 Insulinoma Cell Challenged with H2O2 Berberin and Quercetin—
Anti-Oxidant Activity in βTC6 Insulinoma Cell Challenged with H2O2 Berberin and Palmatine—

[4] = test system: L6-myotubes; assay: Anti-diabetic activity (glucose consumption) in L6-myotubes; assay type: cell-based; design: Anti-diabetic activity (glucose consumption): unit not given here; settings: for Anti-diabetic activity (glucose consumption): L6-myotubes, control 1.00
[5] = test system: βTC6 insulinoma cell; assay: Cell viability assay in βTC6 insulinoma cell line; assay type: cell-based; settings: βTC6, control 100.00
Description: Cell Viability Assay in βTC6 Insulinoma Cell Lime Following—

[6] = test system: 3T3-L1 cells; assay: Cell viability assay in 3T3-L1 cells; settings: for Cell viability: 3T3-L1, control 100.00
[7] = comparison with positive standard

O=c1c(O)c(-c2ccc(O)c(O)c2)oc2cc(O)cc(O)c12 [Quercetin]
Anti-oxidant activity, cells challenged with H2O2 ([1]; Co-incubated, 0.1 pM, control 50.00): 57.30 ± 1.70
Anti-oxidant activity, cells challenged with H2O2 ([1]; Co-incubated, 1 pM, control 50.00): 65.00 ± 2.75
Anti-oxidant activity, cells challenged with H2O2 ([1]; Co-incubated, 10 pM, control 50.00 ± 0.40): 68.01 ± 2.75
Anti-oxidant activity, cells challenged with H2O2 ([1]; Co-incubated, 100 pM, control 50.00 ± 0.40): 78.70 ± 3.50
Anti-oxidant activity, cells challenged with H2O2 ([1]; Co-incubated, 1 nM, control 50.00 ± 0.40): 88.40 ± 1.90
Anti-oxidant activity, cells challenged with H2O2 ([1]; Pre-incubated, 0.1 pM, control 50.00): 61.00 ± 3.00
Anti-oxidant activity, cells challenged with H2O2 ([1]; Pre-incubated, 1 pM, control 50.00): 65.00 ± 1.70
Anti-oxidant activity, cells challenged with H2O2 ([1]; Pre-incubated, 10 pM, control 50.00 ± 0.40): 75.15 ± 2.99
Anti-oxidant activity, cells challenged with H2O2 ([1]; Pre-incubated, 100 pM, control 50.00 ± 0.40): 88.60 ± 2.60
Anti-oxidant activity, cells challenged with H2O2 ([1]; Pre-incubated, 1 nM, control 50.00 ± 0.40): 94.15 ± 1.70
protection against H2O2 induced cellular oxidative damage [1, 7]: superior even at lower concentration
Anti-oxidant activity, cells challenged with H2O2 ([2]; Co-incubated, 0.1 pM, control 61.10): 57.50 ± 1.80
Anti-oxidant activity, cells challenged with H2O2 ([2]; Co-incubated, 1 pM, control 61.10): 65.05 ± 2.80
Anti-oxidant activity, cells challenged with H2O2 ([2]; Co-incubated, 10 pM, control 61.10): 70.36 ± 2.96
Anti-oxidant activity, cells challenged with H2O2 ([2]; Co-incubated, 100 pM, control 61.10): 78.18 ± 2.99
Anti-oxidant activity, cells challenged with H2O2 ([2]; Co-incubated, 1 nM, control 61.10): 88.64 ± 1.99
Anti-oxidant activity, cells challenged with H2O2 ([2]; Pre-incubated, 0.1 pM, control 61.10): 63.60 ± 1.50
Anti-oxidant activity, cells challenged with H2O2 ([2]; Pre-incubated, 1 pM, control 61.10): 68.02 ± 1.40
Anti-oxidant activity, cells challenged with H2O2 ([2]; Pre-incubated, 10 pM, control 61.10): 75.12 ± 3.50
Anti-oxidant activity, cells challenged with H2O2 ([2]; Pre-incubated, 100 pM, control 61.10): 87.90 ± 1.60
Anti-oxidant activity, cells challenged with H2O2 ([2]; Pre-incubated, 1 nM, control 61.10): 95.15 ± 0.99
protection against H2O2 induced cellular oxidative damage [2, 7]: potent protection
Anti-oxidant activity, cells challenged with H2O2 ([3]; Co-incubated, 0.1 pM, control 55.64): 60.31 ± 2.71
Anti-oxidant activity, cells challenged with H2O2 ([3]; Co-incubated, 1 pM, control 55.64): 67.11 ± 2.71
Anti-oxidant activity, cells challenged with H2O2 ([3]; Co-incubated, 10 pM, control 55.64): 70.10 ± 2.30
Anti-oxidant activity, cells challenged with H2O2 ([3]; Co-incubated, 100 pM, control 55.64): 80.72 ± 1.20
Anti-oxidant activity, cells challenged with H2O2 ([3]; Co-incubated, 1 nM, control 55.64): 90.44 ± 1.94
Anti-oxidant activity, cells challenged with H2O2 ([3]; Pre-incubated, 0.1 pM, control 55.64): 64.00 ± 2.10
Anti-oxidant activity, cells challenged with H2O2 ([3]; Pre-incubated, 1 pM, control 55.64): 68.38 ± 1.79
Anti-oxidant activity, cells challenged with H2O2 ([3]; Pre-incubated, 10 pM, control 55.64): 77.51 ± 2.06
Anti-oxidant activity, cells challenged with H2O2 ([3]; Pre-incubated, 100 pM, control 55.64): 81.63 ± 1.50
Anti-oxidant activity, cells challenged with H2O2 ([3]; Pre-incubated, 1 nM, control 55.64): 87.59 ± 1.95

Insulin: reference line in the L6-myotubes glucose consumption table
Anti-diabetic activity (glucose consumption) ([4]; Insulin line, concentration not given): 3.70 ± 0.15

COc1cc2c(cc1OC)-c1cc3ccc(OC)c(OC)c3c[n+]1CC2 [Palmatine]
Anti-diabetic activity (glucose consumption) ([4]; 1 nM): 1.58 ± 0.10
Anti-diabetic activity (glucose consumption) ([4]; 5 nM): 1.78 ± 1.10
Anti-diabetic activity (glucose consumption) ([4]; 25 nM): 2.12 ± 0.09
Anti-diabetic activity (glucose consumption) ([4]; 125 nM): 2.35 ± 0.12
Anti-diabetic activity (glucose consumption) ([4]; 625 nM): 2.60 ± 0.10
glucose consumption ([4]; differentiated L6-myotubes, dose dependent): accelerated glucose consumption
Cell viability ([5]; 1 pM): 97.96 ± 1.10
Cell viability ([5]; 10 pM): 97.50 ± 2.05
Cell viability ([5]; 100 pM): 96.52 ± 2.70
Cell viability ([5]; 1 nM): 94.80 ± 1.32
Cell viability ([5]; 10 nM): 91.66 ± 1.60
Cell viability ([5]; 100 nM): 84.45 ± 1.30
Cell viability ([5]; 1 μM): 83.20 ± 1.90
Cell viability ([5]; 10 μM): 81.98 ± 1.70
Anti-oxidant activity, cells challenged with H2O2 ([1]; Co-incubated, 10 pM, control 50.00): 54.85 ± 2.20
Anti-oxidant activity, cells challenged with H2O2 ([1]; Co-incubated, 100 pM, control 50.00): 57.18 ± 1.20
Anti-oxidant activity, cells challenged with H2O2 ([1]; Co-incubated, 1 nM, control 50.00): 59.87 ± 2.70
Anti-oxidant activity, cells challenged with H2O2 ([1]; Co-incubated, 10 nM, control 50.00): 63.00 ± 1.10
Anti-oxidant activity, cells challenged with H2O2 ([1]; Co-incubated, 100 nM, control 50.00): 65.75 ± 1.40
Anti-oxidant activity, cells challenged with H2O2 ([1]; Pre-incubated, 10 pM, control 50.00): 53.18 ± 3.25
Anti-oxidant activity, cells challenged with H2O2 ([1]; Pre-incubated, 100 pM, control 50.00): 55.13 ± 1.50
Anti-oxidant activity, cells challenged with H2O2 ([1]; Pre-incubated, 1 nM, control 50.00): 57.00 ± 1.25
Anti-oxidant activity, cells challenged with H2O2 ([1]; Pre-incubated, 10 nM, control 50.00): 61.40 ± 0.25
Anti-oxidant activity, cells challenged with H2O2 ([1]; Pre-incubated, 100 nM, control 50.00): 67.25 ± 2.25
protection against H2O2 induced cellular oxidative damage ([1]; pM-nM doses): mild protection
Cell viability ([6]; 10 pM): 100.00 ± 0.10
Cell viability ([6]; 100 pM): 99.99 ± 0.54
Cell viability ([6]; 1 nM): 99.45 ± 0.48
Cell viability ([6]; 10 nM): 98.30 ± 1.80
Cell viability ([6]; 100 nM): 98.90 ± 1.06
Cell viability ([6]; 1 μM): 95.15 ± 1.58
Cell viability ([6]; 10 μM): 89.26 ± 1.30
Cell viability ([6]; 100 μM): 83.10 ± 1.67
toxicity to the cell ([6]; 3T3-L1 cells, 1 μM): non-toxic
Anti-oxidant activity, cells challenged with H2O2 ([2]; Co-incubated, 10 pM, control 60.10): 56.13 ± 6.40
Anti-oxidant activity, cells challenged with H2O2 ([2]; Co-incubated, 100 pM, control 60.10): 60.50 ± 5.50
Anti-oxidant activity, cells challenged with H2O2 ([2]; Co-incubated, 1 nM, control 60.10): 63.91 ± 5.04
Anti-oxidant activity, cells challenged with H2O2 ([2]; Co-incubated, 10 nM, control 60.10): 67.53 ± 8.12
Anti-oxidant activity, cells challenged with H2O2 ([2]; Co-incubated, 100 nM, control 60.10): 71.70 ± 6.16
Anti-oxidant activity, cells challenged with H2O2 ([2]; Pre-incubated, 10 pM, control 60.10): 58.70 ± 4.70
Anti-oxidant activity, cells challenged with H2O2 ([2]; Pre-incubated, 100 pM, control 60.10): 63.30 ± 3.16
Anti-oxidant activity, cells challenged with H2O2 ([2]; Pre-incubated, 1 nM, control 60.10): 66.12 ± 5.85
Anti-oxidant activity, cells challenged with H2O2 ([2]; Pre-incubated, 10 nM, control 60.10): 66.70 ± 3.12
Anti-oxidant activity, cells challenged with H2O2 ([2]; Pre-incubated, 100 nM, control 60.10): 70.00 ± 5.95
protection against H2O2 induced cellular oxidative damage ([2]; pM-nM doses): mild protection
Anti-oxidant activity, cells challenged with H2O2 ([3]; Co-incubated, 1 pM, control 55.54): 56.95 ± 3.60
Anti-oxidant activity, cells challenged with H2O2 ([3]; Co-incubated, 10 pM, control 55.54): 57.04 ± 2.00
Anti-oxidant activity, cells challenged with H2O2 ([3]; Co-incubated, 0.1 nM, control 55.54): 60.10 ± 1.41
Anti-oxidant activity, cells challenged with H2O2 ([3]; Co-incubated, 1 nM, control 55.54): 61.75 ± 2.16
Anti-oxidant activity, cells challenged with H2O2 ([3]; Co-incubated, 10 nM, control 55.54): 65.83 ± 0.81
Anti-oxidant activity, cells challenged with H2O2 ([3]; Pre-incubated, 1 pM, control 55.54): 55.32 ± 1.48
Anti-oxidant activity, cells challenged with H2O2 ([3]; Pre-incubated, 10 pM, control 55.54): 61.67 ± 2.10
Anti-oxidant activity, cells challenged with H2O2 ([3]; Pre-incubated, 0.1 nM, control 55.54): 65.18 ± 1.95
Anti-oxidant activity, cells challenged with H2O2 ([3]; Pre-incubated, 1 nM, control 55.54): 67.05 ± 2.40
Anti-oxidant activity, cells challenged with H2O2 ([3]; Pre-incubated, 10 nM, control 55.54): 69.58 ± 2.55
anti-oxidant activity ([3]; βTC6 cells challenged with hydrogen peroxide): potent anti-oxidant activity
protection against H2O2 induced cellular oxidative damage ([3]; βTC6 insulinoma cells): Mild Protection
